Assay results reported in PMC4174996 (Journal of Medicinal Chemistry, 2014).

Test: Serum stability test
Assay type: in vitro ADME
Details: human, diluted human serum (25%)

Compound `CC[C@H](C)[C@H](NC(=O)[C@@H](NC(=O)[C@@H]1CCCN1C(=O)[C@H](Cc1c[nH]cn1)NC(=O)[C@@H]1CCCN1C(=O)CN)C(C)C)C(=O)N[C@H](C(=O)N[C@H](C(=O)N[C@H](C(=O)NCC(=O)N1CCC[C@H]1C(=O)N[C@@H](Cc1c[nH]cn1)C(=O)N[C@@H](CCC(=O)O)C(=O)N[C@@H](CCC(=O)O)C(N)=O)[C@@H](C)O)[C@@H](C)CC)C(C)C` [VIVIT] has a half-life at 50 µM of ~1 h.
